# Results: publication PMC8778818, “Synthesis, Structural Characterization and Anticancer Activity of New 5-Trifluoromethyl-2-thioxo-thiazolo[4,5-d]pyrimidine Derivatives” (Pharmaceuticals, 2022)
# Several values for one entry are separate records, joined by “and”; a condition that tells them apart may be missing. Identical values can stand only once.
# Experiments:
# HCC-2998 = test: NCI-60 screen, Colon Cancer HCC-2998; format: cell-based, human; conditions: for Growth of Cells (%): HCC-2998, 10^−5 M one dose
# MDA-MB-435 = test: NCI-60 screen, Melanoma MDA-MB-435; format: cell-based, human; conditions: for Growth of Cells (%): MDA-MB-435, 10^−5 M one dose
# Method: The search for the cytotoxic activity of new derivatives usually starts with in vitro cell-based screening. Four compounds 2b (NSC D-745983/1), 3b (NSC D-766111/1), 4b (NSC D-785591/1) and 4c (NSC D-771706/1), selected by the National Cancer Institute were tested in the anticancer screen for a panel of approximately 60 human disease-oriented tumor cell lines, organized into subpanels derived from nine human cancer types—leukemia, melanoma, and cancers of the lung, colon, brain, breast, ovary, prostate, and kidney. They were initially tested at only one concentration of 10 µM (10^−5 M) for each cell line, which were inoculated and preincubated on a microtiter plate for […]. The results of the one-dose anticancer assay for the tested new compounds are reported as the percentage of the treated cell growth in comparison with untreated no-drug control. This allows for detection of the growth inhibition—values 0–100 and cytotoxicity; negative numbers mean cell death.
# Antitumor activity in five dose testing (10^−4−10^−8 M) is expressed by three different dose–response parameters for each of the 60 human tumor cell lines. The GI50 value (molar concentration causing a half-growth inhibition), TGI (molar concentration required for total growth inhibition), which signifies the cytostatic effect, and LC50 (molar concentration of the compound required for 50% cell death). LC50 signifies the cytotoxic effect. […] Nevertheless, the selectivity for GI50 can be seen for several cell lines within subpanel leukemia (SR, log GI50 −6.36) and non-small cell lung cancer (NCI-H522, log GI50 −6.69).
# The antitumor screening (NCI-60) was performed at the National Cancer Institute, Bethesda, USA. A total panel of approximately 60 human tumor cell lines derived from nine different cancer types (leukemia, non-small cell lung, colon, brain, melanoma, ovarian, renal, prostate and breast) formed the basis of this in vitro test. The origins and processing of the cell lines used in the study were described previously. First, the compounds were evaluated in a primary anticancer assay at 10^−5 M. Results for each tested compound are reported as the percent of growth of the treated cells. […] The human tumor cell lines of the cancer screening panel were grown in an RMPI 1640 medium containing 5% fetal bovine serum and 2 mM of L-glutamine. Each cell line was inoculated and preincubated at 37 °C, 5% CO2, 95% air and 100% relative humidity for 24 h, before the addition of the test compound into 96-well microtiter plates in 100 µL at plating densities ranging from 5000 to 40,000 cells/well. The density of inoculum depends on the type of tumor cell and its growth characteristics. The screened compounds were solubilized in dimethyl sulfoxide at 400-fold the desired final concentration and stored frozen. At the time of the test agents’ addition, an aliquot of frozen concentrate was thawed and diluted to twice the desired final concentration with complete medium containing 50 µg/mL gentamicin. Next, the test compounds were evaluated at the four additional 10-fold dilutions to reach the final concentrations plus control. Aliquots of 100 µL of the different dilutions (100, 10, 1, […] µM/mL) of the tested compounds were added to microtiter wells, and the culture was incubated for 48 h under the same conditions. Cell were fixed in situ by the addition of 50 µL of cold 50% trichloroacetic acid and incubated for 60 min at 4 °C. The supernatant was discarded; plates were washed five times with water and air-dried. Sulforhodamine B at 0.4% in 1% acetic acid, 100 µL, was added to each well, then plates were incubated for 10 min at room temperature. Unbound dye was removed by washing five times with 1% acetic acid and air dried. The protein-bound stain was solubilized with a […] trizma base and the absorbance was read on an automated plate reader. A wavelength of 515 nm was used to read optical densities. […]
# UACC-257 = test: NCI-60 screen, Melanoma UACC-257; format: cell-based; conditions: for Growth of Cells (%): UACC-257, 10^−5 M one dose
# UACC-62 = test: NCI-60 screen, Melanoma UACC-62; format: cell-based, human; conditions: UACC-62, 10^−5 M one dose
# OVCAR-3 = test: NCI-60 screen, Ovarian Cancer OVCAR-3; format: cell-based, human; conditions: for Growth of Cells (%): OVCAR-3, 10^−5 M one dose
# [1] = Homo sapiens, HCC-2998, five doses 10^−4–10^−8 M
SMILES,Growth of Cells (%) (HCC-2998),Growth of Cells (%) (MDA-MB-435),Growth of Cells (%) (UACC-257),Growth of Cells (%) (UACC-62),Growth of Cells (%) (OVCAR-3),"log TGI (HCC-2998; HCC-2998, five doses 10^−4–10^−8 M)",GI50 (HCC-2998; [1]),LC50 (HCC-2998; [1]),"GI50 (MDA-MB-435; Homo sapiens, MDA-MB-435, five doses 10^−4–10^−8 M)","CC50 (MDA-MB-435; Homo sapiens, MDA-MB-435, five doses 10^−4–10^−8 M, read-out: log LC50 (the source's name) (converted))","log TGI (MDA-MB-435; MDA-MB-435, five doses 10^−4–10^−8 M)","GI50 (UACC-257; Homo sapiens, UACC-257, five doses 10^−4–10^−8 M)","CC50 (UACC-257; Homo sapiens, UACC-257, five doses 10^−4–10^−8 M, read-out: log LC50 (the source's name) (converted))","log TGI (UACC-257; UACC-257, five doses 10^−4–10^−8 M)","GI50 (OVCAR-3; Homo sapiens, OVCAR-3, five doses 10^−4–10^−8 M)","CC50 (OVCAR-3; Homo sapiens, OVCAR-3, five doses 10^−4–10^−8 M, read-out: log LC50 (the source's name) (converted))","log TGI (OVCAR-3; OVCAR-3, five doses 10^−4–10^−8 M)"
"O=c1[nH]c(C(F)(F)F)nc2c1sc(=S)n2-c1ccccc1 [Compound 2b, 3-phenyl-2-thioxo-5-(trifluoromethyl)-2,3-dihydro[1, 3]thiazolo[4,5-d]pyrimidin-7(6H)-one]",116.48%,114.64%,107.08%,109.52%,110.35%,–,–,–,–,–,–,–,–,–,–,–,–
"FC(F)(F)c1nc(Cl)c2sc(=S)n(-c3ccccc3)c2n1 [Compound 3b, 7-chloro-3-phenyl-5-(trifluoromethyl)[1, 3]thiazolo[4,5-d]pyrimidine-2(3H)-thione]",−26.98% and −26.89%,6.26%,19.38%,79.14%,−41.27%,−5.31 log M,2.24 µM,12.9 µM,1.86 µM,7.41 µM,−5.43 log M,1.74 µM,7.94 µM,−5.43 log M,1.91 µM,6.03 µM,−5.47 log M
"CCNc1nc(C(F)(F)F)nc2c1sc(=S)n2-c1ccccc1 [Compound 4b, 7-(ethylamino)-3-phenyl-5-(trifluoromethyl)[1, 3]thiazolo[4,5-d]pyrimidine-2(3H)-thione]",115.06%,112.84%,98.66%,93.86%,106.99%,–,–,–,–,–,–,–,–,–,–,–,–
Fc1ccc(CNc2nc(C(F)(F)F)nc3c2sc(=S)n3-c2ccccc2)cc1 [Compound 4c],118.24%,102.86%,96.72%,105.93%,111.62%,–,–,–,–,–,–,–,–,–,–,–,–
